Reference: EP0931078B1, “NOVEL TRICYCLIC PIPERIDINYL COMPOUNDS USEFUL AS INHIBITORS OF FARNESYL-PROTEIN TRANSFERASE” (SCHERING CORPORATION, priority 1996, dated 1998)
Like-named read-outs stand apart in the source and are kept apart here.

Target: T1, partially purified rat brain famesyl protein transferase (FPT) (Rattus norvegicus, UniProt Q02293+Q04631)
T1 construct: partially purified rat brain famesyl protein transferase (FPT); from tissue; host or cells: rat brain
Assay: In vitro enzyme assay: inhibition of Ras-CVLS farnesylation by farnesyl protein transferase (FPT)
Format: biochemical
Description: • 1. In vitro enzyme assays: FPT IC50 (inhibition of famesyl protein transferase, in vitro enzyme assay) are determined by the methods disclosed in […] or WO 95/10516. […] Cell-based assay. COS IC50 values refer to the COS cells activity inhibition of Ras processing, are determined by the methods disclosed in […] or WO 95/10516.

[1] = unit printed as uM (Examples 49-54)

T1 sequence (Q02293 whole entry, one chain of several): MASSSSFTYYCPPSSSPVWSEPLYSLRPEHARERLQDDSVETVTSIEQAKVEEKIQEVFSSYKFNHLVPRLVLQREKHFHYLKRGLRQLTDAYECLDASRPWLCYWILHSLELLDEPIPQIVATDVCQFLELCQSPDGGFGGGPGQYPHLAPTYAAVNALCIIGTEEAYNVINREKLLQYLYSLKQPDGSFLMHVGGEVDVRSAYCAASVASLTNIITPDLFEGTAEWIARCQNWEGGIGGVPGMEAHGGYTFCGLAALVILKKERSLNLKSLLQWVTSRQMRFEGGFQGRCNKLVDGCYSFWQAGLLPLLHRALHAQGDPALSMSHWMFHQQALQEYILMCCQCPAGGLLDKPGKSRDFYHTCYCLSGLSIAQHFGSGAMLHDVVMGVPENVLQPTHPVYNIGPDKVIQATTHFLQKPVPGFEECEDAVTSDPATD

CNC(=O)[C@@H]1CCCN(C2c3ncc(Br)cc3CCc3cc(Cl)cc(Br)c32)C1 (some centres unmarked) [Example 50, 1-(3,10-Dibromo-8-chloro-6,11-dihydro-5H-benzo[5,6]cyclohepta[1,2-b]pyridin-11-yl)-N-methyl-3-piperidinecarboxamide] showed an IC50 [1] of 0.96 µM.
Molecule O=C(NCCc1cccnc1)[C@@H]1CCCN(C2c3ncc(Br)cc3CCc3cc(Cl)cc(Br)c32)C1 (some centres unmarked) [Example 52, 1-(3,10-Dibrorno-8-chforo-6,11-dihydro-5H-benzo[5,6]cyclohepta[1,2-b]pyridin-11-yl)-N-[2-(3-pyridinyl)ethyl]-3-piperidinecarboxamide] has an IC50 [1] of 0.081 µM.
For CN(C)CC(=O)N1CCC(CNC(=O)[C@@H]2CCCN(C3c4ncc(Br)cc4CCc4cc(Cl)cc(Br)c43)C2)CC1 (some centres unmarked) [Example 53, 1-(3,10-Dibromo-8-chloro-6,11-dihydro-5H-benzo[5,6]cyclohepta[1,2-b]pyridin-11-yl)-N-[[1-[(dimethylamino)acetyl]-4-piperidinyl]methyl]-3-piperidinecarboxamide], the IC50 [1] was 0.11 µM.
Work on O=C(NCCCN1CCCC1=O)C1CCCN(C2c3ncc(Br)cc3CCc3cc(Cl)cc(Br)c32)C1 (centres unmarked) [Example 54, 1-(3,10-Dibromo-8-chloro-6,11-dihydro-5H-benzo[5,6]cyclohepta[1,2-b]pyridin-11-yl)-N-[3-(2-oxo-1-pyrrolidinyl)propyl]-3-piperidinecarboxamide] yielded an IC50 [1] of 0.1 µM.
Work on O=C(NCc1cccnc1)C1CCCCN1C1c2ncc(Br)cc2CCc2cc(Cl)cc(Br)c21 (stereo not drawn) [Isomer C3 amide] yielded an IC50 of 0.3 µM.
